# Assays:
# Format in all cases: in vivo
# Seipin KO rats = assay: Test Example 7: effects to improve metabolism in Seipin KO rats, a model of generalized lipodystrophy; conditions: standard diet, 20 mg/kg/day intraperitoneal once a day, four weeks
# Method: Seipin KO rats have a mutation in the Seipin gene, the causative gene of human generalized lipodystrophy, and are used as a model of generalized lipodystrophy. The rats have substantially no white adipocyte and thus cannot produce leptin. The rats were prepared in Department of Endocrinology and Metabolism, Kyoto University. Eight-week old male Seipin KO rats were divided into three treatment groups: “Vehicle (V)”, “Compound 57”, and “Compound 32”. The rats were kept for four weeks with ad libitum feeding of standard diet, and the body weight of the rats were measured. The vehicle, Compound 57, and Compound 32 were administered to the rats by intraperitoneal injection once a day. The each dosage of Compounds 57 and 32 was 20 mg/kg/day. After the four weeks the rats were sacrificed, blood was collected, and the plasma levels of glucose and insulin were measured (n=3 for each group).
# [1] = tested on: wild type mice under the high fat diet condition; assay: Test Example 1: effects to improve metabolism in wild type mice under a high fat diet condition; conditions: 60% high fat diet, 50 mg/kg/day intraperitoneal once a day, four weeks; for weight of the adipose tissues: epididymal
# Method: Eight-week old male wild type mice and transgenic mice overexpressing leptin (LepTg) (Ogawa et al. Diabetes 48: 1822-1829, 1999, prepared in Department of Endocrinology and Metabolism, Kyoto University) were divided into three treatment groups, respectively: “standard diet (SD)+vehicle (V)”, “60% high fat diet (HFD)+vehicle”, and “60% high fat diet+Compound 57”. The mice were kept for four weeks with ad libitum feeding, and the body weight and the food intake of the mice were measured. The vehicle and Compound 57 were administered to the mice by intraperitoneal injection once a day. The dosage of Compound 57 was 50 mg/kg/day. After the four weeks the mice were sacrificed and blood, epididymal adipose tissues, and the liver were collected. The weight of the adipose tissues, the liver weight, the liver triglyceride levels, and the plasma levels of glucose, insulin, total cholesterol (T-chol), triglyceride (TG), and nonesterified fatty acid (NEFA) were measured (n=5 for each group). The equivalent dosage of Compound 32 was tested in a similar manner (n=5 for each group).
# [2] = tested on: wild type rats under the high fat diet condition; assay: Test Example 5: effects to improve metabolism in wild type rats under a high fat diet condition; conditions: 60% high fat diet, 20 mg/kg/day intraperitoneal once a day, four weeks
# Method: Eight-week old male wild type rats were divided into four treatment groups: “standard diet (SD)+vehicle (V)”, “60% high fat diet (HFD)+vehicle”, “60% high fat diet+Compound 57”, and “60% high fat diet+Compound 32”. The rats were kept for four weeks with ad libitum feeding, and the body weight of the rats was measured. The vehicle, Compound 32 and Compound 57 were administered to the rats by intraperitoneal injection once a day. The each dosage of Compounds 32 and 57 was 20 mg/kg/day. After the four weeks the rats were sacrificed, blood was collected, and the plasma levels of glucose and insulin were measured (n=5 for each group).
# [3] = tested on: transgenic mice overexpressing leptin (LepTg) having diet-induced obesity; assay: Test Example 4: effects to improve metabolism in LepTg mice having diet-induced obesity caused by a high fat diet; conditions: LepTg mice obese after four-week high fat diet, continued high fat diet, 50 mg/kg/day intraperitoneal once a day, further four weeks; for weight of the adipose tissues: epididymal
# Method: (§1) Eight-week old male wild type mice and transgenic mice overexpressing leptin (LepTg) (see Test Example 1) were divided into two groups, respectively (n=4 and 12), and kept for four weeks under a standard diet (SD) or a high fat diet (HFD) condition. All the mice fed with the standard diet for the four weeks were assigned to the group “vehicle (V)” and fed with the standard diet for further four weeks, and then the body weight and the food intake of the mice were measured. The mice fed with the high fat diet for the four weeks were divided into three groups: “vehicle (V)”, “Compound 57”, and “Compound 32”, and fed with the high fat diet for further four weeks, and then the body weight and the food intake of the mice were measured. The vehicle, Compound 57, and Compound 32 were administered to the mice by intraperitoneal injection once a day. The each dosage of Compounds 57 and 32 was 50 mg/kg/day. Finally the mice were sacrificed and blood, epididymal adipose tissues, and the liver were collected. The weight of the adipose tissues, the liver weight, and the plasma levels of glucose and triglyceride were measured (n=4 for each group).
# A-ZIP/F-1 mice = assay: Test Example 3: effects to improve metabolism in A-ZIP/F-1 mice, a model of generalized lipodystrophy; conditions: standard diet, 50 mg/kg/day intraperitoneal once a day, four weeks; for level of nonesterified fatty acid / level of total cholesterol / level of triglyceride: plasma
# Source text: A-ZIP/F-1 mice, which are used as a model of generalized lipodystrophy, have substantially no white adipocyte and thus cannot produce leptin (Moitra et al. Genes Dev 12: 3168-3181, 1998). Eight-week old male A-ZIP/F-1 mice, gifted from Dr. Reitman of National Institutes of Health, were divided into two treatment groups: “Vehicle (V)” and “Compound 57”. The mice were kept for four weeks with ad libitum feeding of standard diet (SD), and the body weight and the food intake of the mice were measured. The vehicle and Compound 57 were administered to the mice by intraperitoneal injection once a day. The dosage of Compound 57 was 50 mg/kg/day. After the four weeks the mice were sacrificed and blood, epididymal adipose tissues, and the liver were collected. The weight of the adipose tissues, the liver weight, the liver triglyceride levels, the plasma levels of glucose, insulin, total cholesterol (T-chol), triglyceride (TG) and nonesterified fatty acid (NEFA) were measured (n=5 for each group). The equivalent dosage of Compound 32 was tested in a similar manner (n=5 for each group).
# [4] = tested on: wild type mice having diet-induced obesity; assay: Test Example 4: effects to improve metabolism in wild type mice having diet-induced obesity caused by a high fat diet; conditions: wild type mice obese after four-week high fat diet, continued high fat diet, 50 mg/kg/day intraperitoneal once a day, further four weeks
# Method: as §1
Compound,body weight (Seipin KO rats),plasma insulin (Seipin KO rats),random plasma glucose levels (Seipin KO rats),body weight [1],food intake [1],liver triglyceride levels [1],liver weight [1],plasma insulin levels [1],plasma level of nonesterified fatty acid [1],plasma level of total cholesterol [1],plasma level of triglyceride [1],random plasma glucose levels [1],weight of the adipose tissues [1],plasma insulin levels [2],random plasma glucose levels [2],weight gain caused by the high fat diet [2],blood level of glucose [3],blood level of triglyceride [3],body weight [3],food intake [3],further results
"Nc1c(/N=N/c2ccc(-c3cccc4c3sc3ccccc34)nc2)cc(S(=O)(=O)[O-])c2ccccc12.[Na+] [Compound 57, 4-amino-3-(6-dibenzothiophene-4-ylpyridine-3-ylazo)naphthalene-1-sulfonic acid sodium salt]",did not change,did not change,did not change,did not increase,did not increase,did not increase,did not increase,did not increase,did not increase,did not increase,did not increase,did not increase,did not increase,did not increase,did not increase,not observed,decreased,decreased,decreased,significantly decreased,liver weight [3]: decreased; weight of the adipose tissues [3]: significantly decreased; body weight (A-ZIP/F-1 mice): slightly decreased; food intake (A-ZIP/F-1 mice): did not change; liver triglyceride levels (A-ZIP/F-1 mice): decreased; liver weight (A-ZIP/F-1 mice): decreased; plasma insulin levels (A-ZIP/F-1 mice): did not change; random plasma glucose levels (A-ZIP/F-1 mice): did not change; level of nonesterified fatty acid (A-ZIP/F-1 mice): decreased; level of total cholesterol (A-ZIP/F-1 mice): decreased; level of triglyceride (A-ZIP/F-1 mice): decreased; blood level of glucose [4]: decreased; blood level of triglyceride [4]: decreased; body weight [4]: decreased; food intake [4]: significantly decreased
"Cc1cc(F)ccc1-c1ccc(/N=N/c2cc(S(=O)(=O)[O-])c3ccccc3c2N)cn1.[Na+] [Compound 32, 4-amino-3-[6-(4-fluoro-2-methylphenyl)pyridine-3-ylazo]naphthalene-1-sulfonic acid sodium salt]",did not change,did not change,did not change,did not increase,did not increase,did not increase,did not increase,did not increase,did not increase,did not increase,did not increase,did not increase,did not increase,did not increase,did not increase,not observed,decreased,decreased,decreased,significantly decreased,weight of the adipose tissues [3]: significantly decreased; body weight (A-ZIP/F-1 mice): did not; food intake (A-ZIP/F-1 mice): did not change; liver triglyceride levels (A-ZIP/F-1 mice): did not change; liver weight (A-ZIP/F-1 mice): did not change; plasma insulin levels (A-ZIP/F-1 mice): did not change; random plasma glucose levels (A-ZIP/F-1 mice): did not change; level of nonesterified fatty acid (A-ZIP/F-1 mice): did not change; level of total cholesterol (A-ZIP/F-1 mice): did not change; level of triglyceride (A-ZIP/F-1 mice): did not change; blood level of glucose [4]: decreased; blood level of triglyceride [4]: decreased; body weight [4]: decreased

# Source: patent publication US9931351B2, “Method for improving leptin resistance” (Kyoto University, priority 2013, dated 2018)
